Source: article PMC5295395, “Inhibition of PlexA1-mediated brain tumor growth and tumor-associated angiogenesis using a transmembrane domain targeting peptide” (Oncotarget, 2016)

Tests used:
HUVEC cells = experiment: live-monitoring trans-well migration assay, HUVEC (X-Celligence); format: cell-based, human; details: p = 0.0002
Description: We observed PlexA1 positive blood vessels in the tissue array of GBM samples (Figure 5A). […] To address this possibility we first used a transgenic zebra-fish model tg(kdrl:eGFP) highlighting the endothelial cells. This allowed us to assess the angiogenic activities in vivo by analyzing formation of intersegmental vessels (ISVs) after morpholino-based knockdown of the target.
Figure 5 MTP-PlexA1 inhibits developmental and tumor-specific PlexA1 pro-angiogenic role (A) Microphotographs illustrating the expression of PlexA1 in vascular-like structures in human glioma tissues. (Scale bar: 40 μm). (B) Morpholino-based PlexA1 knockdown in Zebrafish tg(kdrl:eGFP) line. Representative images of control, Plexin-A1 mismatch and Pexin-A1 knockdown embryos (plxna1MO) are shown 28 hours post fertilization (28hpf). […] (E) Live-monitoring of VEGF-induced HUVEC cell migration assay using the XCelligence system (transwell assay). (F) Microphotographs illustrating the expression of PlexA1 in blood vessels of the chick chorioallontoic membrane (upper left picture). Microphotographs (middle and lower left pictures) and camera lucida drawing (middle and lower right pictures) showing representative fields of observation after 24 h incubation with VEGF (100 ng/ml, +vehicle) or VEGF + MTP-PlexA1 (10^−7 M). The number of VEGF-induced new blood vessels is shown in the graph.

U373MG cells [1] = experiment: U373MG cell proliferation; format: cell-based, human
[2] = system: NCH644 glioma stem cell tumors in nude mice; experiment: NCH644-mCherry xenograft in nude mice, cells pre-incubated with peptide; format: in vivo, human cells in mouse; details: 5 days
Description: Mounting evidence supports a crucial role of cancer stem cells in the initiation or relapse of tumors. This is particularly the case for gliomas. Thus, we decided to evaluate to what extent MTP-PlexA1 would affect glioma stem cell (GSC) growth. To this end, we used the NCH644 human cell line derived from a patient biopsy. […] We next performed a sphere forming assay in which cells were plated into 96-well plates at a low density (30 cells per well) to monitor production of clones from individual cells growing as non-adherent gliomaspheres. A minimum of 30 cells per well was required to allow sufficient sphere production (composed of at least 8 cells) in a time frame compatible with drug testing. Visual control of sphere formation on a daily basis confirmed that cellular edifices were arising from single cells and not due to cell clumping. […] To address whether this inhibitory effect is sufficient to impede tumor development in vivo we performed a xenograft experiment. NCH644 GCS were grafted in the flank of nude mice in a way to obtain two bilateral tumors derived from either control cells without treatment or from cells that had been pre-incubated with MTP-PlexA1. This was done using a fluorescent version of the NCH644 cell line (mCherry-NCH644) allowing live monitoring of tumor appearance (Figure 7E). […]
Experiments were performed according to the Guide for Care and Use of Laboratory Animals (E67-6-482-21) and the European Directive with approval of the regional ethical committee (Reference AL/55/62/02/13). […] For the experiment conducted with cancer stem cell line NCH644mCherry, we performed bilateral grafting of 10^6 cells on each flank of 20 nude mice without treatment or pre-incubated for 1 hour with MTP-PlexA1 at 10–7 M. After 5 days, the fluorescence emission of developing tumors was recorded using the NightOwl system (Berthold) using appropriate excitation and emission filters (580 nm/620 nm respectively).

[3] = system: chick chorio-allantoic membrane blood vessels; experiment: chick embryonic chorio-allantoic membrane assay; format: in vivo; details: chick CAM, local deposition, 10^−7 M, 24 h incubation
Description: The CAM assay was performed using Leghorn eggs. After 4 days incubation at 37°C, the shells were opened and the embryos were transferred to a Petri dish. The CAMs were grown for additional 4 days before deposition of silicone reservoirs in a region containing one large vessel. Reservoirs were filled with 20 μl VEGF165 solution (20 μg/ml) or a combination of VEGF165 (20 μg/ml) + MTP-PlexA1 (10–7 M). After 24 h incubation, micro- photographs were taken for quantification of vessel growth. Camera lucida drawing was systematically performed to allow better counting of blood vessels and sprouting; the entire analysis being performed in blind conditions.

U373MG cells [4] = experiment: 3D migration assay, U373MG spheroids in plasma clot; format: cell-based, human; details: 3D plasma clot, 24 h, VEGF 100 ng/ml, MTP-PlexA1 10–7 M
Description: Supplementary Figure S6: The anti-tumor effect of MTP-PlxA1 was verified in U373MG human GBM line. We found […]
Because PlexA1 is involved in cell migration we also performed a 3D migration assay. U373MG cells were grown as cell aggregates (micro tumor-like spheroids) for 24 h in plasma clot with or without VEGF. […]
migration that formed cell chains invading the 3D substrate as previously described (12). Strikingly, VEGF-induced cell migration was abolished when MTP-PlexA1 at 10–7 M was added to the cultures. […]
of PlexA1, this part of the study exemplified the therapeutic potential of MTP-PlexA1 because this peptide was able to block two major mechanisms of tumor progression.
(Stable Disease) and 62.5% PR (Partial Response).
(1 picture or pasted object on this page, not shown here)

## TLPAIVGIGGGGGLLLLVIVAVLIAYKRK [MTP-PlexA1, synthetic transmembrane peptide mimicking the TMD of PlexA1]
HUVEC cells
  change of VEGFA-induced HUVEC cell migration: −63%
U373MG cells [1]
  U373MG cell proliferation, dose dependence: dose-dependent reduction
U373MG cells [1]; at 10–7 M, p < 0.0001, Mann Whitney
  change of U373MG cell proliferation, maximal effect: –25%
[2]; NCH644 cells pre-incubated 1 h at 10–7 M, p = 0.0032, Mann Whitney
  change of number of detectable tumors: −71.4%
[2]; NCH644 cells pre-incubated 1 h at 10–7 M, untreated control 14 tumors in 20 mice, p = 0.0032
  detectable tumors after grafting pre-incubated cells: 4 out of 20
[2]; NCH644 cells pre-incubated, fluorescence, p = 0.4258
  size of tumors that were able to grow: comparable to the one of the control group
[3]
  VEGFA-induced vascular growth and complexity: significantly inhibited
U373MG cells [4]
  VEGF-induced U373MG tumor cell migration: abolished
